Starred links: 1 amine or outer side, 2 acyl side, 3 side chain; linkers in the order of their positions; H or OH if unused. Non-standard residues stand in square brackets, D forms with d. Residues, ends and D or L forms follow the SMILES beside them. Groups on a side chain read outwards from the residue. *: point of attachment. C18 diacid = O=C(O)CCCCCCCCCCCCCCCCC(=O)*; γGlu = O=C(O)[C@H](CCC(=O)[*:2])N[*:1]; αMeF = C[C@](N)(Cc1ccccc1)C(=O)O; AEEA = NCCOCCOCC(=O)O; Aib = CC(C)(N)C(=O)O
How the values were obtained:
[1] = molecular target: human GLP-1 receptor (hGLP-1R) (Homo sapiens, UniProt P43220); assay: cAMP production (HTRF) in CHO cells expressing hGLP-1R; assay type: cell-based; set-up: expressed in transfected cells; details: for EC50: Table 6, peptides modified at position 17, cAMP in CHO hGLP-1R cells, geometric mean, read-out: hGLP-1R EC50; for % Relative Potency Ratio: Table 6, % GLP-1R activity relative to GLP-1 / % GlucR activity relative to glucagon
human GLP-1 receptor (hGLP-1R), sequence (P43220 24-463): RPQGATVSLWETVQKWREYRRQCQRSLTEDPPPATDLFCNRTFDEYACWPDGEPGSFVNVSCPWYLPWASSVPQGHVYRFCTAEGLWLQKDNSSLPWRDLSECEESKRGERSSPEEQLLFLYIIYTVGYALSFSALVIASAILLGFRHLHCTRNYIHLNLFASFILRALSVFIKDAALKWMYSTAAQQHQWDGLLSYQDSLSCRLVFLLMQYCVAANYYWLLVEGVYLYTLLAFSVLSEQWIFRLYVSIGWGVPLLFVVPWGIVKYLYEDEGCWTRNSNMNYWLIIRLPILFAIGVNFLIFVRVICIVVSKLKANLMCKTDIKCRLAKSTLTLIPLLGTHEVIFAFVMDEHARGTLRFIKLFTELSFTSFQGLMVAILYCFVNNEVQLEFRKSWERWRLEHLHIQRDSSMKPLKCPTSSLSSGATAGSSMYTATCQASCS
Procedure, shortened: (§1)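 Read-out: HTRF cAMP (anti-cAMP cryptate donor, cAMP-d2 acceptor in conjugate/lysis buffer), converted to % Delta F and fitted by 4-parameter logistic for EC50. Cell densities were 1×10^5 cells/mL (hGLP-1R) or 2×10^5 cells/mL (hGCGR). Stimulation lasted 30 min at room temperature.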

[2] = molecular target: human glucagon receptor (hGCGR) (Homo sapiens, UniProt P47871); assay: cAMP production (HTRF) in CHO cells expressing hGCGR; assay type: cell-based; set-up: expressed in transfected cells; details: Table 6, peptides modified at position 17; cAMP in CHO hGCGR cells; geometric mean; read-out: hGluc-R EC50
human glucagon receptor (hGCGR), sequence (P47871 26-477): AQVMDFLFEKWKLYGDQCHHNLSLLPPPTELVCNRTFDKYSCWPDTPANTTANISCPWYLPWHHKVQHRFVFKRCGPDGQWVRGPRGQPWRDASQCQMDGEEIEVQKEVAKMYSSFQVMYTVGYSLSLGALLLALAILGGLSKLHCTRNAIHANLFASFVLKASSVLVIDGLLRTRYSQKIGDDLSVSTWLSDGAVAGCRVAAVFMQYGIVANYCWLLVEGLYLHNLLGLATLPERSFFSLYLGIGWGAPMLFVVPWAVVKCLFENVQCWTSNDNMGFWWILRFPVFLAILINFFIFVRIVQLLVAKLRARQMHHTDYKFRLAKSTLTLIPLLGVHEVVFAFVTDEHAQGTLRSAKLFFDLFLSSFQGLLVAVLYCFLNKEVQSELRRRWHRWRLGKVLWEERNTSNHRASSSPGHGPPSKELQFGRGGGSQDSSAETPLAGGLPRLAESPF
Procedure, shortened: as §1

EC50 [1] | % Relative Potency Ratio [1] | EC50 [2] | Compound
0.0276 nM | 8.9 | 0.123 nM | CC(C)C[C@H](NC(=O)[C@H](Cc1c[nH]c2ccccc12)NC(=O)[C@H](CCCNC(=N)N)NC(=O)[C@@H](NC(=O)[C@H](Cc1ccccc1)NC(=O)[C@H](CC(=O)O)NC(=O)[C@H](CCC(N)=O)NC(=O)[C@H](C)NC(=O)[C@H](CCCNC(=N)N)NC(=O)[C@H](CCCCNC(=O)COCCOCCNC(=O)COCCOCCNC(=O)CC[C@H](NC(=O)CCCCCCCCCCCCCCCCC(=O)O)C(=O)O)NC(=O)[C@H](CCCNC(=N)N)NC(=O)[C@H](CC(=O)O)NC(=O)[C@H](CC(C)C)NC(=O)[C@](C)(Cc1ccccc1)NC(=O)[C@H](CCCCN)NC(=O)[C@H](CO)NC(=O)[C@@H](NC(=O)[C@H](CC(=O)O)NC(=O)[C@H](CO)NC(=O)[C@@H](NC(=O)[C@H](Cc1ccccc1)NC(=O)[C@@H](NC(=O)CNC(=O)[C@H](CCC(N)=O)NC(=O)C(C)(C)NC(=O)[C@@H](N)Cc1c[nH]cn1)[C@@H](C)O)[C@@H](C)O)C(C)C)C(C)C)C(=O)N[C@@H](CC(C)C)C(=O)NC(C)(C)C(=O)N[C@H](C(=O)N[C@@H](CCC(=O)O)C(N)=O)[C@@H](C)O [Peptide 422] (H-H[Aib]QGTFTSDVSK[αMeF]LDRK([AEEA-AEEA-γGlu-C18 diacid])RAQDFVRWLL[Aib]TE-NH2; N-terminus assumed)
0.0261 nM | 168.1 | 2.22 nM | CC(C)C[C@H](NC(=O)[C@H](Cc1c[nH]c2ccccc12)NC(=O)[C@H](CCCNC(=N)N)NC(=O)[C@@H](NC(=O)[C@H](Cc1ccccc1)NC(=O)[C@H](CC(=O)O)NC(=O)[C@H](CCC(N)=O)NC(=O)[C@H](C)NC(=O)[C@H](CCCNC(=N)N)NC(=O)[C@H](CCCCNC(=O)COCCOCCNC(=O)COCCOCCNC(=O)CC[C@H](NC(=O)CCCCCCCCCCCCCCCCC(=O)O)C(=O)O)NC(=O)[C@H](CCCCN)NC(=O)[C@H](CC(=O)O)NC(=O)[C@H](CC(C)C)NC(=O)[C@](C)(Cc1ccccc1)NC(=O)[C@H](CCCCN)NC(=O)[C@H](CO)NC(=O)[C@@H](NC(=O)[C@H](CC(=O)O)NC(=O)[C@H](CO)NC(=O)[C@@H](NC(=O)[C@H](Cc1ccccc1)NC(=O)[C@@H](NC(=O)CNC(=O)[C@H](CCC(N)=O)NC(=O)C(C)(C)NC(=O)[C@@H](N)Cc1c[nH]cn1)[C@@H](C)O)[C@@H](C)O)C(C)C)C(C)C)C(=O)N[C@@H](CCCCN)C(=O)NC(C)(C)C(=O)N[C@H](C(=O)N[C@@H](CCC(=O)O)C(=O)O)[C@@H](C)O [Peptide 423] (H-H[Aib]QGTFTSDVSK[αMeF]LDKK([AEEA-AEEA-γGlu-C18 diacid])RAQDFVRWLK[Aib]TE-OH; N-terminus assumed)
0.0155 nM | 16.5 | 0.129 nM | CC(C)C[C@H](NC(=O)[C@H](Cc1c[nH]c2ccccc12)NC(=O)[C@H](CCCNC(=N)N)NC(=O)[C@@H](NC(=O)[C@H](Cc1ccccc1)NC(=O)[C@H](CC(=O)O)NC(=O)[C@H](CCC(N)=O)NC(=O)[C@H](C)NC(=O)[C@H](CCCNC(=N)N)NC(=O)[C@H](CCCCNC(=O)COCCOCCNC(=O)COCCOCCNC(=O)CC[C@H](NC(=O)CCCCCCCCCCCCCCCCC(=O)O)C(=O)O)NC(=O)[C@H](CCCCN)NC(=O)[C@H](CC(=O)O)NC(=O)[C@H](CC(C)C)NC(=O)[C@](C)(Cc1ccccc1)NC(=O)[C@H](CCCCN)NC(=O)[C@H](CO)NC(=O)[C@@H](NC(=O)[C@H](CC(=O)O)NC(=O)[C@H](CO)NC(=O)[C@@H](NC(=O)[C@H](Cc1ccccc1)NC(=O)[C@@H](NC(=O)CNC(=O)[C@H](CCC(N)=O)NC(=O)C(C)(C)NC(=O)[C@@H](N)Cc1c[nH]cn1)[C@@H](C)O)[C@@H](C)O)C(C)C)C(C)C)C(=O)N[C@@H](CC(C)C)C(=O)NC(C)(C)C(=O)N[C@H](C(=O)N[C@@H](CCCCN)C(=O)O)[C@@H](C)O [Peptide 424] (H-H[Aib]QGTFTSDVSK[αMeF]LDKK([AEEA-AEEA-γGlu-C18 diacid])RAQDFVRWLL[Aib]TK-OH; N-terminus assumed)

From patent publication US20250353891A1 (MEDIMMUNE LIMITED, priority 2022, published 2025)
